In patent publication US20260176254A1, “INHIBITORS OF PROSTATE SPECIFIC MEMBRANE ANTIGEN AND USE THEREOF” (SHANGHAI SINOTAU BIOTECH. CO., LTD, priority 2023, published 2026):

Target: T1, recombinant human PSMA (rhPSMA) (Homo sapiens, UniProt Q04609)
T1 construct: purchased Sino Biological
Test: Naaladase assay (fluorescence-based Naaladase activity inhibition)
Type: biochemical
Conditions: rhPSMA 0.4 μg/mL, substrate N-Acetyl-Asp-Glu 40 μM, 37° C. one hour
Protocol: Naaladase activity inhibition was determined using a fluorescence-based assay. Briefly, the solution containing the substrate N-Acetyl-Asp-Glu (Sigma-Aldrich) at 40 μM and the compound at concentrations from 0.15 nM to 1000 nM was mixed at equal volume with recombinant human PSMA (rhPSMA, Sino Biological) at 0.4 μg/mL, in assay buffer (50 mM HEPES, 100 mM NaCl, pH 7.5). The enzymatic reaction was proceeded by incubation at 37° C. for one hour and then stopped by heating at 95° C. for 5 minutes. A solution of 15 mM ortho-phthaldialdehyde (Sigma-Aldrich) was added to all vials and incubated for 10 min at ambient temperature. The reaction solutions were loaded onto a 96-well flat clear bottom black microplates (Corning) and read at excitation and emission wavelengths of 330 and 450 nm, respectively, using a microplate reader (Tecan). The data were analyzed by a one-site total binding regression algorithm of GraphPad Prism (GraphPad Software).

T1 sequence (Q04609 whole entry): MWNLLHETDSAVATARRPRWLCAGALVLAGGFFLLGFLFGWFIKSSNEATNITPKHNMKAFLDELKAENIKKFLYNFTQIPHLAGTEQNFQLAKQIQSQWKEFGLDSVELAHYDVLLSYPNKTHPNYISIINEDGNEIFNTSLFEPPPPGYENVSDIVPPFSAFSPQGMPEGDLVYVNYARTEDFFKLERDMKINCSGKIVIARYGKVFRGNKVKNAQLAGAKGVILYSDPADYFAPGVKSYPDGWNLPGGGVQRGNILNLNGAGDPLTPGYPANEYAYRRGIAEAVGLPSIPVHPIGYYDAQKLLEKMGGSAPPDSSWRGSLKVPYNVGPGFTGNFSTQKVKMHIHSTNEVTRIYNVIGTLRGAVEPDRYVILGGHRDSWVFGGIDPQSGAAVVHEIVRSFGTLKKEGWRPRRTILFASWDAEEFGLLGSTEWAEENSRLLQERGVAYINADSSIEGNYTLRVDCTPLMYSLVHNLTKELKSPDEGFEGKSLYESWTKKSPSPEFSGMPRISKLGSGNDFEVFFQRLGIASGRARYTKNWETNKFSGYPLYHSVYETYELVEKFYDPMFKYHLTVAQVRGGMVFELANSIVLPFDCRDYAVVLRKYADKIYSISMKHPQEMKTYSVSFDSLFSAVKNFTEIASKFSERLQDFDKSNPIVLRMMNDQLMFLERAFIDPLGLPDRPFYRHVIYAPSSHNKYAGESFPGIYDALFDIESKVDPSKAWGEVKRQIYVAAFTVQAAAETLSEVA

IC50 | SMILES
26.6 nM | O=C(O)CC[C@H](NC(=O)N[C@@H](CCCCNC(=O)[C@H](Cc1ccc2ccccc2c1)Nc1nc(O)nc(NC23CCC(NC(=O)CN4CCN(CC(=O)O)CCN(CC(=O)O)CCN(CC(=O)O)CC4)(CC2)CC3)n1)C(=O)O)C(=O)O [E27]
3.7 nM | O=C(O)CC[C@H](NC(=O)N[C@@H](CCCCNC(=O)C(Cc1ccc2ccccc2c1)Nc1nnc(C23CCC(CNC(=O)CN4CCN(CC(=O)O)CCN(CC(=O)O)CCN(CC(=O)O)CC4)(CC2)CC3)o1)C(=O)O)C(=O)O (single isomer, unassigned) [E18]
23.1 nM | COc1nc(N[C@@H](Cc2ccc3ccccc3c2)C(=O)NCCCC[C@H](NC(=O)N[C@@H](CCC(=O)O)C(=O)O)C(=O)O)cc(NC23CCC(NC(=O)CN4CCN(CC(=O)O)CCN(CC(=O)O)CCN(CC(=O)O)CC4)(CC2)CC3)n1 [E25]

Further lines, the compound ahead of its results:

SMILES | IC50
O=C(O)CC[C@H](NC(=O)N[C@@H](CCCCNC(=O)[C@H](Cc1ccc2ccccc2c1)Nc1c(NC23CCC(c4nnc(CN5CCN(CC(=O)O)CCN(CC(=O)O)CCN(CC(=O)O)CC5)o4)(CC2)CC3)c(=O)c1=O)C(=O)O)C(=O)O [E28] | 2.1 nM
O=C(O)CCC[C@H](NC(=O)N[C@@H](CCCCNC(=O)[C@H](Cc1c2ccccc2cc2ccccc12)Nc1c(N[C@H]2CC[C@H](c3nnc(CN4CCN(CC(=O)O)CCN(CC(=O)O)CCN(CC(=O)O)CC4)o3)CC2)c(=O)c1=O)C(=O)O)C(=O)O [E11] | 10 nM
NC(=O)CN1CCN(CC(=O)O)CCN(CC(=O)NC23CCC(Nc4c(N[C@@H](Cc5c6ccccc6cc6ccccc56)C(=O)NCCCC[C@H](NC(=O)N[C@@H](CNC(=O)C(=O)O)C(=O)O)C(=O)O)c(=O)c4=O)(CC2)CC3)CCN(CC(=O)O)CC1 [E16] | 3.5 nM
O=C(O)CCC[C@H](NC(=O)N[C@@H](CCCCNC(=O)[C@H](Cc1c2ccccc2cc2ccccc12)Nc1c(NC23CCC(CNC(=O)CN4CCN(CC(=O)O)CCN(CC(=O)O)CCN(CC(=O)O)CC4)(CC2)CC3)c(=O)c1=O)C(=O)O)C(=O)O [E2, (S)-2-(3-((S)-5-((S)-3-(anthracen-9-yl)-2-((3,4-dioxo-2-((4-((2-(4,7,10-tris(carboxymethyl)-1,4,7,10-tetraazacyclododecan-1-yl)acetamido)methyl)bicyclo[2.2.2]octan-1-yl)amino)cyclobut-1-en-1-yl)amino)propanamido)-1-carboxypentyl)ureido)hexanedioic acid] | 4 nM
